Reference: patent US5968910A, “Compositions containing two or three inhibitors of different HIV reverse transcriptases” (priority 1994, dated 1999)
pIC50: −log10 of the molar value. Converted amounts (≈) assume the structure as drawn. Like-named read-outs stand apart in the source and are kept apart here.

Assays:
HIV-1/Pyr (181-Cys) = experiment: Sensitivity of mutant HIV-1 strain in CEM cell cultures; format: cell-based; details: Human immunodeficiency virus 1, CCRF-CEM; CEM cells, Table 1; read-out: 50% Effective Concentration
Method in brief: (§1)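 CEM cells at 250,000 cells/ml were infected with HIV-1 at 100 CCID50 per ml, then mixed with serial dilutions of test compound. After 4 days at 37° C., cultures were scored for syncytium formation.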

HIV-1/I(0.1) 103-Asn = experiment: as above; format: cell-based; details: Human immunodeficiency virus 1, CCRF-CEM; Table 5; read-out: EC50
Method in brief: as §1

HIV-1/II(0.1) 100-Ile = experiment: as above; format: cell-based; details: Human immunodeficiency virus 1, CCRF-CEM; Table 5; read-out: EC50
Method in brief: as §1

HIV-1/Nev (106-Ala) = experiment: as above; format: cell-based; details: Human immunodeficiency virus 1, CCRF-CEM; CEM cells, Table 1; read-out: 50% Effective Concentration
Method in brief: as §1

HIV-1/V(0.5) 103-Asn = experiment: as above; format: cell-based; details: Human immunodeficiency virus 1, CCRF-CEM; Table 5; read-out: EC50
Method in brief: as §1

HIV-1/III(0.1) 103-Asn = experiment: as above; format: cell-based; details: Human immunodeficiency virus 1, CCRF-CEM; Table 5; read-out: EC50
Method in brief: as §1

[1] = test system: HIV-1/TSAO-m^3 T (138-Lys); experiment: as above; format: cell-based; details: Human immunodeficiency virus 1, CCRF-CEM; CEM cells, Table 1; read-out: 50% Effective Concentration
Method in brief: as §1

[2] = test system: HIV-1/TIBO R82913 (103-Asn); experiment: as above; format: cell-based; details: Human immunodeficiency virus 1, CCRF-CEM; CEM cells, Table 1; read-out: 50% Effective Concentration
Method in brief: as §1

[3] = test system: HIV-1/TIBO R82150 (100-Ile); experiment: as above; format: cell-based; details: Human immunodeficiency virus 1, CCRF-CEM; CEM cells, Table 1; read-out: 50% Effective Concentration
Method in brief: as §1

[4] = test system: HIV-1/V(0.1) 101-Ile + 141-Glu; experiment: as above; format: cell-based; details: Human immunodeficiency virus 1, CCRF-CEM; Table 5; read-out: EC50
Method in brief: as §1

HIV-1 RT (WT) = HIV-1 RT (WT) (Human immunodeficiency virus type 1 group M subtype B, UniProt P03366); experiment: biochemical
Method in brief: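 Recombinant HIV-1 RT incubated 30 min at 37° C with poly(C).oligo(dG) (0.1 mM) and [³H]dGTP (2.95 μM) in Tris pH 7.8 with 5 mM MgCl2, 150 mM KCl, DTT, glutathione, Triton X-100; 5-fold compound dilutions. Acid-insoluble radioactivity counted after TCA/pyrophosphate precipitation.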

HIV-1(IIIB) (WT) = experiment: microbe, parasite or virus in culture; format: cell-based; details: Human immunodeficiency virus 1, IIIB, CCRF-CEM
Method in brief: as §1

HIV-1(IIIB) = experiment: Knock-out concentrations: breakthrough of HIV-1(IIIB)-induced cytopathicity in CEM cell cultures; format: cell-based; details: for activity at 0.1 µg/mL / activity at 0.5 µg/mL / activity at 2.5 µg/mL: Human immunodeficiency virus 1, IIIB, CCRF-CEM, read-out: HIV-1-induced cytopathicity in cell culture; for activity at 0.1 µg/mL: 0.1 μg/ml; for activity at 0.5 µg/mL: 0.5 μg/ml; for activity at 2.5 µg/mL: 2.5 μg/ml
Experimental: The culture medium consisted of RPMI 1640 containing 10% fetal bovine serum, 2 mM L-glutamine, and 0.075% NaHCO3. The multiplicity of the initial infection was ~1000 times the CCID50 (50% cell culture infective dose). Passages were performed every 3 to 4 days by adding 0.5 to 1.0 ml of the infected culture supernatant to 5 ml of a suspension containing 4×10^5 uninfected CEM cells per ml. Syncytium formation was used as a parameter of virus breakthrough in the cell cultures. In the drug combination experiments, the compounds were combined at the same initial concentrations as used for the two lowest concentrations in the single-drug experiments.
The drug concentrations were kept constant throughout the whole time period of the experiment (10 subcultivations or 35 days). Then the drugs were removed from the cell cultures, and the cells were further subcultured for at least 5 additional passages.

[5] = 936 h, day 39 post infection, compound absent from day 35
[6] = 1008 h, day 42 post infection, compound absent from day 35
[7] = 1104 h, day 46 post infection, compound absent from day 35
[8] = 1176 h, day 49 post infection, compound absent from day 35
[9] = 1272 h, day 53 post infection, compound absent from day 35

O=C(OC1CCCCC1)c1cc(NC(=S)c2ccsc2)ccc1Cl [Compound V]
EC50 (HIV-1/Pyr (181-Cys)): 0.077 µg/mL (≈ 0.203 µM)
EC50 (HIV-1/I(0.1) 103-Asn): 1.75 µg/mL (≈ 4.61 µM)
EC50 (HIV-1/II(0.1) 100-Ile): ≥ 5 µg/mL
EC50 (HIV-1/Nev (106-Ala)): 0.073 µg/mL (≈ 0.192 µM)
EC50 (HIV-1/V(0.5) 103-Asn): ≥ 5 µg/mL
EC50 (HIV-1/III(0.1) 103-Asn): 0.35 µg/mL (≈ 0.921 µM)
EC50 [1]: 0.075 µg/mL (≈ 0.197 µM)
EC50 [2]: > 1 µg/mL
EC50 [3]: 0.85 µg/mL (≈ 2.24 µM)
EC50 [4]: 0.3 µg/mL (≈ 0.79 µM)
pIC50 (HIV-1 RT (WT); range stated for the compounds together, poly(C).oligo(dG), 2.95 μM [2,8-3H]dGTP, read-out: IC50 on recombinant HIV-1 RT): 6.69 to 7.32
IC50 (HIV-1 RT (WT); substrate [2,8-3H]dGTP 2.95 μM, template poly(rC)oligo(dG), read-out: IC50, anti-HIV-1 RT (WT) activity (converted)): 203 nM
EC50 (HIV-1(IIIB) (WT); CEM cells, Table 1, read-out: 50% Effective Concentration): 0.03 µg/mL (≈ 0.079 µM)
EC50 (HIV-1(IIIB) (WT); HIV-1 (III8), Table 5, read-out: EC50): 0.03 µg/mL (≈ 0.079 µM)
IC50 (HIV-1(IIIB) (WT); range stated for Compounds I-V together, read-out: 50% inhibitory concentration, HIV-1(IIIB) replication in CEM cells): 0.004 to 0.05 µg/mL (≈ 0.0105 to 0.132 µM)
prevention of virus breakthrough, fold more efficient than BHAP (HIV-1(IIIB)): at least 5 fold
prevention of virus breakthrough, fold more efficient than nevirapine (HIV-1(IIIB)): ≥ 25 fold
activity at 0.1 µg/mL (HIV-1(IIIB); 96 h, day 4 post infection): 0%
activity at 0.5 µg/mL (HIV-1(IIIB); 96 h, day 4 post infection): 0%
activity at 2.5 µg/mL (HIV-1(IIIB); 96 h, day 4 post infection): 0%
activity at 0.1 µg/mL (HIV-1(IIIB); 192 h, day 8 post infection): 37.5%
activity at 0.5 µg/mL (HIV-1(IIIB); 192 h, day 8 post infection): 0%
activity at 2.5 µg/mL (HIV-1(IIIB); 192 h, day 8 post infection): 0%
activity at 0.1 µg/mL (HIV-1(IIIB); 264 h, day 11 post infection): 50%
activity at 0.5 µg/mL (HIV-1(IIIB); 264 h, day 11 post infection): 0%
activity at 2.5 µg/mL (HIV-1(IIIB); 264 h, day 11 post infection): 0%
activity at 0.1 µg/mL (HIV-1(IIIB); 336 h, day 14 post infection): 100%
activity at 0.5 µg/mL (HIV-1(IIIB); 336 h, day 14 post infection): 18.5%
activity at 2.5 µg/mL (HIV-1(IIIB); 336 h, day 14 post infection): 0%
activity at 0.1 µg/mL (HIV-1(IIIB); 408 h, day 17 post infection): 100%
activity at 0.5 µg/mL (HIV-1(IIIB); 408 h, day 17 post infection): 75%
activity at 2.5 µg/mL (HIV-1(IIIB); 408 h, day 17 post infection): 0%
activity at 0.1 µg/mL (HIV-1(IIIB); 504 h, day 21 post infection): 100%
activity at 0.5 µg/mL (HIV-1(IIIB); 504 h, day 21 post infection): 100%
activity at 2.5 µg/mL (HIV-1(IIIB); 504 h, day 21 post infection): 0%
activity at 0.1 µg/mL (HIV-1(IIIB); 600 h, day 25 post infection): 100%
activity at 0.5 µg/mL (HIV-1(IIIB); 600 h, day 25 post infection): 100%
activity at 2.5 µg/mL (HIV-1(IIIB); 600 h, day 25 post infection): 0%
activity at 0.1 µg/mL (HIV-1(IIIB); 672 h, day 28 post infection): 100%
activity at 0.5 µg/mL (HIV-1(IIIB); 672 h, day 28 post infection): 100%
activity at 2.5 µg/mL (HIV-1(IIIB); 672 h, day 28 post infection): 0%
activity at 0.1 µg/mL (HIV-1(IIIB); 768 h, day 32 post infection): 100%
activity at 0.5 µg/mL (HIV-1(IIIB); 768 h, day 32 post infection): 100%
activity at 2.5 µg/mL (HIV-1(IIIB); 768 h, day 32 post infection): 0%
activity at 0.1 µg/mL (HIV-1(IIIB); 840 h, day 35 post infection): 100%
activity at 0.5 µg/mL (HIV-1(IIIB); 840 h, day 35 post infection): 100%
activity at 2.5 µg/mL (HIV-1(IIIB); 840 h, day 35 post infection): 0%
activity at 0.1 µg/mL (HIV-1(IIIB); [5]): 100%
activity at 0.5 µg/mL (HIV-1(IIIB); [5]): 100%
activity at 2.5 µg/mL (HIV-1(IIIB); [5]): 0%
activity at 0.1 µg/mL (HIV-1(IIIB); [6]): 100%
activity at 0.5 µg/mL (HIV-1(IIIB); [6]): 100%
activity at 2.5 µg/mL (HIV-1(IIIB); [6]): 0%
activity at 0.1 µg/mL (HIV-1(IIIB); [7]): 100%
activity at 0.5 µg/mL (HIV-1(IIIB); [7]): 100%
activity at 2.5 µg/mL (HIV-1(IIIB); [7]): 0%
activity at 0.1 µg/mL (HIV-1(IIIB); [8]): 100%
activity at 0.5 µg/mL (HIV-1(IIIB); [8]): 100%
activity at 2.5 µg/mL (HIV-1(IIIB); [8]): 0%
activity at 0.1 µg/mL (HIV-1(IIIB); [9]): 100%
activity at 0.5 µg/mL (HIV-1(IIIB); [9]): 100%
activity at 2.5 µg/mL (HIV-1(IIIB); [9]): 0%
concentration at which virus emerged (virus breakthrough) (HIV-1(IIIB); tested at 0.1, 0.5 and 2.5 μg/ml, 35 days): 0.5 µg/mL
